pIC50: −log10 of the molar value. Where only a bound is given, the exact number is not on record here.

For one data set, the target named is mouse 11β-HSD1 (Mus musculus, UniProt P50172). Put plainly: Cellular 11β-HSD1 inhibition, mouse enzyme. To be noted: mean of three measurements. It is filed as cell-based.
Data set [1] can be described thus: Metabolism studies in human liver microsomes. It counts as in vitro ADME. To be noted: for half-life / metabolites identified: human liver microsomes, 37 °C, NADPH; for half-life: 40 min, mean of two measurements. For orientation: Microsomes from liver hold many membrane-bound enzymes, among them those of drug oxidation.
Data set [2] addresses human cytochrome P450 3A4-BFC (Homo sapiens, UniProt P08684). Put plainly: Inhibition of human cytochrome P450 3A4-BFC. It counts as in vitro ADME.
The target in data set [3] is human cytochrome P450 2C9 (Homo sapiens, UniProt P11712). Put plainly: Inhibition of human cytochrome P450 2C9. It is filed as in vitro ADME.
Chain of human cytochrome P450 2C9 (P11712 whole entry): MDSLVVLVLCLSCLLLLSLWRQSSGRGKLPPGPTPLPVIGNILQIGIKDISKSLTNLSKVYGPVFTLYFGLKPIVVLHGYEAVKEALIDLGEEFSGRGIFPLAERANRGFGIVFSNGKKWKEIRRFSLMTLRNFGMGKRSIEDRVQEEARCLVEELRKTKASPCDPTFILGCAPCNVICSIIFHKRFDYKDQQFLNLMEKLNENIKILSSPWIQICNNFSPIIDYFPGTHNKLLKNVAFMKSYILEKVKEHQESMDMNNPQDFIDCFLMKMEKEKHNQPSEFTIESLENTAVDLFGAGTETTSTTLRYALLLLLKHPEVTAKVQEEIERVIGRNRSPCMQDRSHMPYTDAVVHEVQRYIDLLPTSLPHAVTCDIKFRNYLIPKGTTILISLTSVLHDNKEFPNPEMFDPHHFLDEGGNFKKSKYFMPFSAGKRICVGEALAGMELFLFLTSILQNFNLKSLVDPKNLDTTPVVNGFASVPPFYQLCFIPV
Data set [4] deals with human cytochrome P450 3A4-BQ (Homo sapiens, UniProt P08684). Put plainly: Inhibition of human cytochrome P450 3A4-BQ.
Chain of human cytochrome P450 3A4-BQ (P08684 whole entry): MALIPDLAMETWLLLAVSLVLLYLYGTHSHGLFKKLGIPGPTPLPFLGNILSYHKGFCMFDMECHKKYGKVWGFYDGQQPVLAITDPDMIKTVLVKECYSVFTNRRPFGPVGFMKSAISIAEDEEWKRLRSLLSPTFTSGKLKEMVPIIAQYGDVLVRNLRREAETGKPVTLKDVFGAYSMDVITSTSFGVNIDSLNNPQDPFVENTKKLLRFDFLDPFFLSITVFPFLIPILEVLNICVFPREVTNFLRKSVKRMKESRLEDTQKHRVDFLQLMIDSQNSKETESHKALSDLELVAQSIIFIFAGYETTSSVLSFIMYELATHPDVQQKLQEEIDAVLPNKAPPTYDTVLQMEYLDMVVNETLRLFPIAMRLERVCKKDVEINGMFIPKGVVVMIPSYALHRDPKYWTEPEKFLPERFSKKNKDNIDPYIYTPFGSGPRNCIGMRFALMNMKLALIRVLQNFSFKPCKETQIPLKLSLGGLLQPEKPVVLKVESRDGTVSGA
Data set [5] has as its target human cytochrome P450 2D6 (Homo sapiens, UniProt P10635). Put plainly: Inhibition of human cytochrome P450 2D6. It counts as in vitro ADME.
Data set [6] addresses T1, human cytochrome P450 1A2 (Homo sapiens, UniProt P05177).
T1 sequence (P05177 1-516): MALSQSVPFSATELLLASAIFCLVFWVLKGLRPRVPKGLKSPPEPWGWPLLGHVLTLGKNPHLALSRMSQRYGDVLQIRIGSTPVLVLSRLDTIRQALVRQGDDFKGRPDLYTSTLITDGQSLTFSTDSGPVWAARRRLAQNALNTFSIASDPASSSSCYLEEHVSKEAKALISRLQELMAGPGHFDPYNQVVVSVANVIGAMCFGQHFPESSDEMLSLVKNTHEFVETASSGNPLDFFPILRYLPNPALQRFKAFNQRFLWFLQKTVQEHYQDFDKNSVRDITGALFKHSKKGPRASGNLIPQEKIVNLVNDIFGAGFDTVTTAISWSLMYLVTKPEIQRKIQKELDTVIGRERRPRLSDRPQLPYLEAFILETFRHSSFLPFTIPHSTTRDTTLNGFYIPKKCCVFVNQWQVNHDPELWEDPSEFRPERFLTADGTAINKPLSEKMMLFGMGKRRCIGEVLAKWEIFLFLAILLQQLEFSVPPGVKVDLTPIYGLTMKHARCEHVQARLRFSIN
The data set is described as follows: Inhibition of human cytochrome P450 1A2. It counts as in vitro ADME.

In data set [7] the target is human cytochrome P450 2C19 (Homo sapiens, UniProt P33261). Put plainly: Inhibition of human cytochrome P450 2C19. It counts as in vitro ADME.
Chain of human cytochrome P450 2C19 (P33261 whole entry): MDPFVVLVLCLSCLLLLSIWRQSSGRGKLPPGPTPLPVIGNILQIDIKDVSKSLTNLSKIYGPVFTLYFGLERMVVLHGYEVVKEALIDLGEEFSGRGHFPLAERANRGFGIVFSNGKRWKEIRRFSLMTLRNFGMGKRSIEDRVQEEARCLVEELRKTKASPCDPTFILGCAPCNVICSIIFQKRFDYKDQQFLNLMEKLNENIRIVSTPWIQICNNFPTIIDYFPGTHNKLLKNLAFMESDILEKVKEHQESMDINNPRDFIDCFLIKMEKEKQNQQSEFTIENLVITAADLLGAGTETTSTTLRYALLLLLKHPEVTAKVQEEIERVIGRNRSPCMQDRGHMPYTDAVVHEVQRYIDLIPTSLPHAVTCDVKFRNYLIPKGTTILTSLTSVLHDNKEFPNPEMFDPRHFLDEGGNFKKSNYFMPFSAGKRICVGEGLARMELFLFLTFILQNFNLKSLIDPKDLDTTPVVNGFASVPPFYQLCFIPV
For a further data set, the target named is human 11β-HSD1 (Homo sapiens, UniProt P28845). Put plainly: Cellular 11β-HSD1 inhibition assay. The note with it: HEK293, read-out: Percent inhibition measured at 1 μM.
Chain of human 11β-HSD1 (P28845 whole entry): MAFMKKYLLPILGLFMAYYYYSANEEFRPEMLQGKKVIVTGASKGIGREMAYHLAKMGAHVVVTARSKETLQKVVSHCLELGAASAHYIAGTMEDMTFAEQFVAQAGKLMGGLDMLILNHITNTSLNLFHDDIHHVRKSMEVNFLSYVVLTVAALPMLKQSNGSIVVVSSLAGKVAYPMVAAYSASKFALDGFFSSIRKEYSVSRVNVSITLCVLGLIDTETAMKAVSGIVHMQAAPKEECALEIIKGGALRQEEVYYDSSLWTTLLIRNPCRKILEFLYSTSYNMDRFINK
The nature of data set [8]: Water solubility in Na2HPO4 buffer solution. It counts as physicochemical. The note with it: aqueous buffer.
Where [9] appears, read: human, liver microsomes, Half-life.

Chain of human cytochrome P450 3A4-BFC (P08684 whole entry): as the sequence (P08684 whole entry) above
Chain of mouse 11β-HSD1 (P50172 whole entry): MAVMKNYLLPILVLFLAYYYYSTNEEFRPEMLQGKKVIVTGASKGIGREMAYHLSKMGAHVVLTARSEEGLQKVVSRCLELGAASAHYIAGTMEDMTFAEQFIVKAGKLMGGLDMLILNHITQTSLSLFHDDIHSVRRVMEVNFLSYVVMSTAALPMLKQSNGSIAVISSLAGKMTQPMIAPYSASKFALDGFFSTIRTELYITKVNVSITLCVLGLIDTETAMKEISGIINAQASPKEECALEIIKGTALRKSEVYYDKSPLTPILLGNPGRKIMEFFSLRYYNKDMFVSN
Chain of human cytochrome P450 2D6 (P10635 whole entry): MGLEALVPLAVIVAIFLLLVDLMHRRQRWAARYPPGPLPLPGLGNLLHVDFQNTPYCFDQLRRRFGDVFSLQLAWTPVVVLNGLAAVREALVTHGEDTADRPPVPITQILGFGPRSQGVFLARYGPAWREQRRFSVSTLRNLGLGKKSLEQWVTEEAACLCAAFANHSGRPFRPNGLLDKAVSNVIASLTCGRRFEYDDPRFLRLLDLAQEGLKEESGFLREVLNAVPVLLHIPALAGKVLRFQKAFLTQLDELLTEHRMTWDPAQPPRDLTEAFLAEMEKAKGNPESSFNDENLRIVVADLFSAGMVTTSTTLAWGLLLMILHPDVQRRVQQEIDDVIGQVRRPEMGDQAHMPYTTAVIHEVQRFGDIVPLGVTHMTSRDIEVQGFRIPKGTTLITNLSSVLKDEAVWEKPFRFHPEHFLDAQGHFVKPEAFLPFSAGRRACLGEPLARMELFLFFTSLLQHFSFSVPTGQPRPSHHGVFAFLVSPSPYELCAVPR

For orientation: melting point means the temperature of the solid-liquid transition. The pIC50 is the IC50 on a negative log10 scale, so that one unit is a factor of ten. `O=C(COc1cccnc1)C12CC3CC(CC(C3)C1)C2` [Compound 12, 1-(Adamantan-1-yl)-2-(pyridin-3-yloxy)ethan-1-one] returned a melting point of 73 to 75 °C. Besides, on mouse 11β-HSD1, the pIC50 was 6.80.

As usually defined, the half-life is the time in which the quantity being followed falls by half. Broadly, the microsomal CLint is the rate of metabolic loss divided by the concentration. High values mean faster metabolism, low ones greater metabolic stability. Consider `O=C(C[S+]([O-])c1ccccn1)C12CC3CC(CC(C3)C1)C2` (stereo not shown) [Compound 16, 1-(Adamantan-1-yl)-2-(pyridine-2-sulfinyl)ethan-1-one], for which the melting point lay within 66 to 68 °C. In addition, the pIC50 at mouse 11β-HSD1 is 7.37. Moreover, the half-life in data set [1] was determined as 0.333 h. Moreover, the microsomal CLint in data set [1] (human, liver microsomes) was found to be 31 µL/min/mg. The molecule further came in with a half-life in [1] (setting [9]) of 0.333 to 0.5 h.

As to `Cc1cccc([S+]([O-])CC(=O)C23CC4CC(CC(C4)C2)C3)n1` (stereo not shown) [Compound 17, 1-(Adamantan-1-yl)-2-(6-methylpyridine-2-sulfinyl)ethan-1-one], the melting point was in the range of 75 to 76 °C. At mouse 11β-HSD1, this molecule had a pIC50 of 7.17.

In the case of `O=C(C[S+]([O-])c1ccncc1)C12CC3CC(CC(C3)C1)C2` (stereo not shown) [Compound 18, 1-(Adamantan-1-yl)-2-(pyridine-4-sulfinyl)ethan-1-one], the melting point is 136 to 138 °C. In addition, the pIC50 in data set [2] is 4.92. Also, the pIC50 in data set [3] was below 4.00. In [4], this molecule gave a pIC50 below 4.00. The same molecule gave a pIC50 on mouse 11β-HSD1 of 7.21. Moreover, in [5], the pIC50 was below 4.00. The pIC50 in [6] was below 4.00. Besides, the pIC50 in data set [7] is below 4.00.

`O=C(COCc1ccccn1)C12CC3CC(CC(C3)C1)C2` [Compound 28, 1-(Adamantan-1-yl)-2-(pyridin-2-ylmethoxy)ethan-1-one]: the pIC50 in data set [2] was 4.70; in data set [3] it was below 4.00; in data set [4] it was 4.11; on mouse 11β-HSD1 it was 7.36; in data set [5] it was below 4.00; in [6], below 4.00. For the same molecule, the pIC50 in data set [7] is below 4.00. In [1], the metabolites identified result was “no metabolites identified”. The microsomal CLint in data set [1] (human, liver microsomes) was found to be 8.9 µL/min/mg. In addition, the half-life in [1] (setting [9]) is 1.13 h.

Regarding `O=C(COCc1cccnc1)C12CC3CC(CC(C3)C1)C2` [Compound 31, 1-(Adamantan-1-yl)-2-(pyridin-3-ylmethoxy)ethan-1-one], the pIC50 in data set [2] is 4.17; in data set [3], below 4.00; in data set [4] it was 5.80; in data set [6], 4.64; in data set [7], 4.34. Further, the metabolites identified entry in [1] is given as “no metabolites identified”. This molecule came in with a microsomal CLint in data set [1] (human, liver microsomes) of 3.7 µL/min/mg. The molecule also yielded a half-life in data set [1] (setting [9]) of 2.13 h.

In turn, `O=C(C[S+]([O-])Cc1ccccn1)C12CC3CC(CC(C3)C1)C2` (stereo not shown) [Compound 40, 1-(Adamantan-1-yl)-2-[(pyridin-2-ylmethyl)sulfinyl]ethan-1-one] returned a melting point of 87 to 88 °C. On mouse 11β-HSD1, this molecule gave a pIC50 of 6.61.

Take `O=C(CS(=O)(=O)Cc1ccccn1)C12CC3CC(CC(C3)C1)C2` [Compound 43, 1-(Adamantan-1-yl)-2-[(pyridin-2-ylmethyl)sulfonyl]ethan-1-one]: the melting point is 116 to 117 °C. Also, the pIC50 in data set [2] was below 4.00. The molecule further gave a pIC50 in data set [3] below 4.00. This molecule also gave a pIC50 in data set [4] of 4.62. Besides, on mouse 11β-HSD1, the pIC50 is 7.46. In addition, the pIC50 in data set [6] is 4.44. In data set [7], this molecule gave a pIC50 of 4.62.

As usually defined, the inhibition is how much of the control response was suppressed. `O=C(CSCc1ccc(Cl)nc1)C12CC3CC(CC(C3)C1)C2` [Compound 49, 1-(Adamantan-1-yl)-2-{[(6-chloropyridin-3-yl)methyl]sulfanyl}ethan-1-one] gave a melting point of 88 to 90 °C. For the same molecule, the inhibition at 1 µM on human 11β-HSD1 was 31%.

`O=C(CS(=O)(=O)Cc1ccc(C(F)(F)F)nc1)C12CC3CC(CC(C3)C1)C2` [Compound 52, 1-(Adamantan-1-yl)-2-({[6-(trifluoromethyl)pyridin-3-yl]methyl}sulfonyl)ethan-1-one]: the melting point was in the range of 87 to 89 °C. The inhibition at 1 µM on human 11β-HSD1 was determined as 54%.

For orientation: solubility means the concentration that dissolves in the medium under given conditions. The low end stands for a poorly soluble substance, the high end for a readily soluble substance. On to `Cl.O=C(COCc1cccnc1)C12CC3CC(CC(C3)C1)C2` [Compound 62, 1-(Adamantan-1-yl)-2-(pyridin-3-ylmethoxy)ethan-1-one hydrochloride], for which the solubility in [8] is above 4000 µg/mL.

Values taken from article PMC3179844 (Chemmedchem, 2011).
